Patent US20140341853A1, “Bacteria-Mediated Therapy for Cancer” (priority 2013, published 2014)

Tested on: yeast cells
Test: MTT assay using transformed E. coli, yeast cells and Daun02 as the prodrug
Type: cell-based
Procedure: In an exemplary embodiment, E. coli BL21 cells were transformed with the pSV-β-Galactosidase plasmid which contains a gene for beta-gal (available from Promega, Wisconsin, USA). Other types of bacteria and differently configured plasmids can also be used. Yeast can act as a eukaryotic cell model for cancer cells. Yeast cells contain mitochondria and a number of proteins homologous to those in humans. A MTT assay was performed using the transformed E. coli, yeast cells, and Daun02 as the prodrug. MTT is a tetrazolium dye which is converted into an insoluble purple-colored product (formazan) by live cells. The presence of formazan was measured spectrophotometrically. […] FIGS. 2A and 2B illustrate results of studies in which growing yeast cells were exposed to transformed E. coli BL21 cells and the prodrug Daun02. Bacteria and yeast were cultured over night and allowed to grow for 3 hours to be in optimal linear growth phase and samples were incubated together for approximately 5.5 or 10 hours in a 96 well microwell plate. The antibiotic kanamycin was added to all sample wells to reduce bacterial background signal. MTT dye was then added to wells and samples were incubated for three hours. A solubilization solution was then added, incubated for one hour, and the optical density was measured at 570 nm with a microplate reader. The absorbance at 570 nm of bacteria-only and bacteria and yeast-only samples were also measured. […] FIGS. 2A and 2B display results from different treatment times: 5.5 hours and 10 hours, respectively. […] Samples C and D contained beta-gal expressing bacteria, prodrug, and yeast cells. […] The length of time can be increased or decreased to increase the effectiveness of the treatment. […] A 2-Sample T-Test between the control sample and Sample C in the 10 hour experiment returned a p-value of 0.00296. […] Both p-values are smaller than the alpha level of 0.05 chosen before experimentation.

SMILES: COc1cccc2c1C(=O)c1c(O)c3c(c(O)c1C2=O)C[C@@](O)(C(C)=O)C[C@@H]3O[C@H]1C[C@H](NC(=O)OCc2ccc(O[C@@H]3O[C@H](CO)[C@H](O)[C@H](O)[C@H]3O)c([N+](=O)[O-])c2)[C@H](O)[C@H](C)O1 [Daun02, N-[4″-(β-galactopyranosyl)-3″-nitrobenzyloxycarbonyl]daunomycin]
- MTT absorbance at 570 nm (yeast cell survival) (Sample C: 2.5 μM Daun02 with beta-gal expressing E. coli BL21, 10 hours, p-value 0.00296 vs control): yeast cell death
- MTT absorbance at 570 nm (yeast cell survival) (Sample D: 5 μM Daun02 with beta-gal expressing E. coli BL21, 5.5 hours, bacterial background subtracted): low absorption values
- MTT absorbance at 570 nm (yeast cell survival) (Sample D: 5 μM Daun02 with beta-gal expressing E. coli BL21, 10 hours, p-value 0.00593 vs control): yeast cell death
- MTT absorbance at 570 nm (yeast cell survival) (Samples A and B: yeast and prodrug, no bacteria (no added beta-gal enzyme), 5.5 and 10 hours): close to the control values
